In data set [1] the test system is Staphylococcus aureus. Kind of data set: Efficacy of the antimicrobial conservation (European Pharmacopea 5.1.3). Format: cell-based. Conditions: oxaliplatinum in solution, test of artificial contamination recommended by the Pharmacopea. Here is the method: Under these conditions, the obtained results have shown a definite reduction of the staphylococcus aureus population with a Δlog of 5,99 after 24 hours.

Data set [2] in a line: Solvent optimization above 10 mg/ml, visual observation, with temperature variations. It counts as physicochemical. As to conditions: for visual aspect of mixture: aqueous, ad 25 ml. On the procedure: First it has been carried to 60° C. and maintained at this temperature under agitation during one hour. […] It was then submitted to three successive freezing with, in the interval, return to the room temperature. This solution has then staid seven days in a fridge.

The conditions of data set [3]: aqueous medium. The source says:
Some of these tests will appear in the examples as comparatives.

On to `N[C@@H]1CCCC[C@H]1N.O=C([O-])C(=O)[O-].[Pt+2]` [oxaliplatinum], for which the “antimicrobial efficacy in words” value in data set [1] is “antimicrobial efficacy”. The “visual aspect of mixture” value was “residues appear” in data set [2] (400 mg oxaliplatinum and 12,5 g maltitol); “clear” in data set [2] (337,5 mg oxaliplatinum and 5 g maltitol). For the same molecule, the “visual aspect of solution” value in data set [2] (337,5 mg oxaliplatinum and 5 g maltitol ad 25 ml, 60° C. under agitation during one hour) was “clear and colorless”. The crystal formation result in data set [2] (337,5 mg oxaliplatinum and 5 g maltitol ad 25 ml, three successive freezing, then seven days in a fridge, return to room temperature) is “no crystal has been observed”. In addition, the dissolution in words result in data set [2] (379,7 mg oxaliplatinum in 25 ml glycerol to 85%) is listed as “partly dissolve”.
Take Tween 20: the “effect of the substance, mixed with or solubilised in water, on oxaliplatinum solubility” value in data set [3] is recorded as “ineffective”.

The values are drawn from patent publication US7070796B1 (Debiopharm S.A., priority 1999, dated 2006).
